Reference: patent publication US20050070510A1, “Substituted tetracycline compounds as synergistic antifungal agents” (Paratek Pharmaceuticals, Inc., priority 2001, published 2005)

What follows are compounds tested on COS-1 cells (assay: In vitro mammalian cytotoxicity assay (Resazurin)).

Structure (SMILES) | In Vitro Cytotoxicity
CN(C)[C@@H]1C(O)=C(C(N)=O)C(=O)[C@@]2(C#N)C(O)=C3C(=O)c4c(O)cccc4[C@H](N)[C@@]3(N)[C@H](OC(=O)CN)[C@@]12N [BV] | ** (toxicities less than 25 μg/mL are represented by **)
CN(C)[C@@H]1C(O)=C(C(N)=O)C(=O)[C@@]2(C#N)C(O)=C3C(=O)c4c(ccc(NC(=O)Nc5ccc(Cl)cc5C(F)(F)F)c4O)[C@H](N)[C@@]3(N)[C@H]([S+](N)[O-])[C@@]12N (some centres unmarked) [BW] | ** (toxicities less than 25 μg/mL are represented by **)
CN(C)[C@@H]1C(O)=C(C(N)=O)C(=O)[C@@]2(C#N)C(O)=C3C(=O)c4c(O)cccc4/C(=C\c4ccc(Cl)cc4)[C@@]3(N)[C@H]([S+](N)[O-])[C@@]12N (some centres unmarked) [BY] | ** (toxicities less than 25 μg/mL are represented by **)
CN(C)CC(=O)O[C@H]1[C@@]2(N)C(=C(O)[C@]3(C#N)C(=O)C(C(N)=O)=C(O)[C@@H](N(C)C)[C@]13N)C(=O)c1c(O)cccc1[C@@H]2N [BZ] | ** (toxicities less than 25 μg/mL are represented by **)
CN(C)[C@@H]1C(O)=C(C(N)=O)C(=O)[C@@]2(C#N)C(O)=C3C(=O)c4c(ccc(NC5CCCC5)c4O)[C@H](N)[C@@]3(N)[C@H]([S+](N)[O-])[C@@]12N (some centres unmarked) [CA] | ** (toxicities less than 25 μg/mL are represented by **)
CN(C)c1cc(NC(=O)Nc2ccc(Cl)cc2C(F)(F)F)c(O)c2c1C[C@@]1(N)C[C@@]3(N)[C@H](N(C)C)C(O)=C(C(N)=O)C(=O)[C@@]3(C#N)C(O)=C1C2=O [CB] | ** (toxicities less than 25 μg/mL are represented by **)
CN(C)c1cc(/C=C/c2ccc(F)cc2)c(O)c2c1C[C@@]1(N)C[C@@]3(N)[C@H](N(C)C)C(O)=C(C(N)=O)C(=O)[C@@]3(C#N)C(O)=C1C2=O [CD] | ** (toxicities less than 25 μg/mL are represented by **)
CN(C)[C@@H]1C(O)=C(C(N)=O)C(=O)[C@@]2(C#N)C(O)=C3C(=O)c4c(ccc(/C=C/c5ccc(F)cc5)c4O)[C@H](N)[C@@]3(N)[C@H](O)[C@@]12N [CE] | ** (toxicities less than 25 μg/mL are represented by **)
CN(C)c1cc(NC(=O)Nc2cccc3ccccc23)c(O)c2c1C[C@@]1(N)C[C@@]3(N)[C@H](N(C)C)C(O)=C(C(N)=O)C(=O)[C@@]3(C#N)C(O)=C1C2=O [CF] | ** (toxicities less than 25 μg/mL are represented by **)
CCCC(Nc1ccc2c(c1O)C(=O)C1=C(O)[C@]3(C#N)C(=O)C(C(N)=O)=C(O)[C@@H](N(C)C)[C@]3(N)[C@@H](O)[C@]1(N)[C@H]2N)C(=O)OCC (some centres unmarked) [CG] | ** (toxicities less than 25 μg/mL are represented by **)
CN(C)[C@@H]1C(O)=C(C(N)=O)C(=O)[C@@]2(C#N)C(O)=C3C(=O)c4c(ccc(-c5ccc6c(c5)OCO6)c4O)[C@H](N)[C@@]3(N)[C@H](O)[C@@]12N [CH] | ** (toxicities less than 25 μg/mL are represented by **)
C=CCNc1ccc2c(c1O)C(=O)C1=C(O)[C@]3(C#N)C(=O)C(C(N)=O)=C(O)[C@@H](N(C)C)[C@]3(N)[C@@H](O)[C@]1(N)[C@H]2N [CI] | ** (toxicities less than 25 μg/mL are represented by **)
CN(C)[C@@H]1C(O)=C(C(N)=O)C(=O)[C@@]2(C#N)C(O)=C3C(=O)c4c(O)cccc4[C@H](N)[C@@]3(N)[C@H](OC(=O)C34CC5CC(CC(C5)C3)C4)[C@@]12N [CJ] | ** (toxicities less than 25 μg/mL are represented by **)
CN(C)[C@@H]1C(O)=C(C(N)=O)C(=O)[C@@]2(C#N)C(O)=C3C(=O)c4c(O)cccc4/C(=C\c4cccc(C(N)=O)c4)[C@@]3(N)[C@H](O)[C@@]12N [CK] | * (toxicities greater than >25 μg/ml are represented by *)
CN(C)[C@@H]1C(O)=C(C(N)=O)C(=O)[C@@]2(C#N)C(O)=C3C(=O)c4c(O)ccc(I)c4[C@H](N)[C@@]3(N)[C@H](O)[C@@]12N [CL] | ** (toxicities less than 25 μg/mL are represented by **)
CCC(=O)O[C@H]1[C@@]2(N)C(=C(O)[C@]3(C#N)C(=O)C(C(N)=O)=C(O)[C@@H](N(C)C)[C@]13N)C(=O)c1c(O)ccc(I)c1[C@@H]2N [CM] | ** (toxicities less than 25 μg/mL are represented by **)
CN(C)[C@@H]1C(O)=C(C(N)=O)C(=O)[C@@]2(C#N)C(O)=C3C(=O)c4c(O)ccc(-c5ccccn5)c4[C@H](N)[C@@]3(N)[C@H](O)[C@@]12N [CN] | * (toxicities greater than >25 μg/ml are represented by *)
CN(C)[C@@H]1C(O)=C(C(N)=O)C(=O)[C@@]2(C#N)C(O)=C3C(=O)c4c(ccc(Br)c4O)[C@H](N)[C@@]3(N)[C@H](O)[C@@]12N [CO] | * (toxicities greater than >25 μg/ml are represented by *)
CN(C)[C@@H]1C(O)=C(C(N)=O)C(=O)[C@@]2(C#N)C(O)=C3C(=O)c4c(O)ccc(-c5ccc(F)cc5)c4[C@H](N)[C@@]3(N)[C@H](O)[C@@]12N [CQ] | ** (toxicities less than 25 μg/mL are represented by **)
CC(=O)c1ccc(O)c2c1[C@H](N)[C@]1(N)C(=C(O)[C@]3(C#N)C(=O)C(C(N)=O)=C(O)[C@@H](N(C)C)[C@]3(N)[C@H]1O)C2=O [CR] | ** (toxicities less than 25 μg/mL are represented by **)
CN(C)[C@@H]1C(O)=C(C(N)=O)C(=O)[C@@]2(C#N)C(O)=C3C(=O)c4c(O)c(I)cc(I)c4[C@H](N)[C@@]3(N)[C@H](O)[C@@]12N [CT] | ** (toxicities less than 25 μg/mL are represented by **)
CN(C)[C@@H]1C(O)=C(C(N)=O)C(=O)[C@@]2(C#N)C(O)=C3C(=O)c4c(O)ccc(I)c4C[C@@]3(N)C[C@@]12N [CU] | ** (toxicities less than 25 μg/mL are represented by **)
CN(C)[C@@H]1C(O)=C(C(N)=O)C(=O)[C@@]2(C#N)C(O)=C3C(=O)c4c(O)ccc(I)c4[C@H](N)[C@@]3(N)[C@H](OC(=O)C3CCCCC3)[C@@]12N [CV] | ** (toxicities less than 25 μg/mL are represented by **)
CN(C)[C@@H]1C(O)=C(C(N)=O)C(=O)[C@@]2(C#N)C(O)=C3C(=O)c4c(O)ccc(-c5ccc(I)cc5)c4C[C@@]3(N)C[C@@]12N [CW] | ** (toxicities less than 25 μg/mL are represented by **)
CN(C)[C@@H]1C(O)=C(C(N)=O)C(=O)[C@@]2(C#N)C(O)=C3C(=O)c4c(O)ccc(-c5ccccc5)c4C[C@@]3(N)C[C@@]12N [CX] | * (toxicities greater than >25 μg/ml are represented by *)
Cc1ccc(/C=C2\c3cccc(O)c3C(=O)C3=C(O)[C@]4(C#N)C(=O)C(C(N)=O)=C(O)[C@@H](N(C)C)[C@]4(O)[C@@H](O)[C@@]32N)cc1 [CY] | ** (toxicities less than 25 μg/mL are represented by **)
CN(C)[C@@H]1C(O)=C(C(N)=O)C(=O)[C@@]2(C#N)C(O)=C3C(=O)c4c(O)cccc4C(N)[C@@]3(N)[C@H](O)[C@@]12N (some centres unmarked) [CZ] | ** (toxicities less than 25 μg/mL are represented by **)
CC#Cc1ccc(O)c2c1CC1CC3[C@H](N(C)C)C(O)=C(C(N)=O)C(=O)[C@@]3(O)C(O)=C1C2=O (some centres unmarked) [Compound HC, 7-(Propynyl)-Sancycline] | ** (toxicities less than 25 μg/mL are represented by **)
Cc1ccc(CCc2ccc(O)c3c2CC2CC4[C@H](N(C)C)C(O)=C(C(N)=O)C(=O)[C@@]4(O)C(O)=C2C3=O)cc1 (some centres unmarked) [Compound HG] | ** (toxicities less than 25 μg/mL are represented by **)
